According to ChEMBL document CHEMBL1201862, “PubChem BioAssay data set” (2004):
The source made the active and inactive calls.

Legend:
Danio rerio = assay: In Vivo Angiogenesis Dose-Response Confirmation. [Related pubchem assays: 732 (Assay preceding this confirmatory assay.)]; assay type: functional, organism-based
Vero = assay: West Nile virus antiviral activity, cell-based, CPE readout (AID 1621); assay type: functional; conditions: Chlorocebus sabaeus
[1] = molecular target: Induced myeloid leukemia cell differentiation protein Mcl-1 (Homo sapiens, UniProt Q07820); assay: MCL1-BIM BH3 interaction inhibitors, dose response, biochemical, fluorescence polarization, BIM-BH3 peptide, 1536-well (AID 2217)
Chain of Induced myeloid leukemia cell differentiation protein Mcl-1 (Q07820 whole entry): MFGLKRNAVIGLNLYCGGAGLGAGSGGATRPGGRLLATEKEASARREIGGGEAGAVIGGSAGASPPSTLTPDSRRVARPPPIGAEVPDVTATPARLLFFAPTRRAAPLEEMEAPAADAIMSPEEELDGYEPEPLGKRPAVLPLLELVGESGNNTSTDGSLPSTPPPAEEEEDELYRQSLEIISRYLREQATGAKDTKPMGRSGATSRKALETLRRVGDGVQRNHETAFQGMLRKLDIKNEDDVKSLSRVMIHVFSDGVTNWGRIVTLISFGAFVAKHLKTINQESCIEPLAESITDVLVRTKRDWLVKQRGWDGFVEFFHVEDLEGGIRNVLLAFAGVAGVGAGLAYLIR

Albumin = Albumin (Bos taurus, UniProt P02769); assay: Counterscreen for inhibitors of T-cell receptor (TCR)-CD3 interaction: Fluorescence-based biochemical high throughput dose response assay to identify inhibitors of T-cell receptor (TCR)-CD3 interaction using a TAMRA-labeled BSA probe.; assay type: functional
Chain of Albumin (P02769 whole entry): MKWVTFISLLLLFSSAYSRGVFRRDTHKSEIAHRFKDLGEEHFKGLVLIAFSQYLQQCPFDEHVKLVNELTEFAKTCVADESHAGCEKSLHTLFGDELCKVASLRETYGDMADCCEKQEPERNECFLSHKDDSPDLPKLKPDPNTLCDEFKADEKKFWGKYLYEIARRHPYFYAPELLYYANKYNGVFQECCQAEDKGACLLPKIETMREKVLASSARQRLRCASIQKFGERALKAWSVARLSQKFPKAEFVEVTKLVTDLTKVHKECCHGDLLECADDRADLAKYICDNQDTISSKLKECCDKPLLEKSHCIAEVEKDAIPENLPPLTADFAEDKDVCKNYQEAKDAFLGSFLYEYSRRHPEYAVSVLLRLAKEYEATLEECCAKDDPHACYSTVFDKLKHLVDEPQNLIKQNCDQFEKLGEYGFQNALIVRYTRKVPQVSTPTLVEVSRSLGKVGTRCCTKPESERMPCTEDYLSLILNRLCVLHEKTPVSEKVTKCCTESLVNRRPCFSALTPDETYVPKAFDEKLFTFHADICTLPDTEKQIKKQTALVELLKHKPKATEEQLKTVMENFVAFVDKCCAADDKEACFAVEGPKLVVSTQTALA

Genome polyprotein = Genome polyprotein (Hepatitis C virus, UniProt Q2Q167); assay: HCV core protein dimerization inhibitors, dose response, biochemical, TR-FRET (AID 2159); design: species or system Hepacivirus hominis;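 also: blocks dimerization of HCV core protein measured by TR-FRET between tagged core106 pairs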
Chain of Genome polyprotein (Q2Q167 whole entry): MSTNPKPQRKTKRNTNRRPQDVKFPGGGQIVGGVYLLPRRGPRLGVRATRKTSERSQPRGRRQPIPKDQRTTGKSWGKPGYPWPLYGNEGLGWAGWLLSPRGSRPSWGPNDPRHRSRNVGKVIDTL

[2] = molecular target: DNA (cytosine-5)-methyltransferase 1 (Homo sapiens, UniProt P26358); assay: DNMT1 methyltransferase inhibitors, confirmation, biochemical, fluorescent molecular beacon (AID 602386); assay type: functional
Chain of DNA (cytosine-5)-methyltransferase 1 (P26358 whole entry): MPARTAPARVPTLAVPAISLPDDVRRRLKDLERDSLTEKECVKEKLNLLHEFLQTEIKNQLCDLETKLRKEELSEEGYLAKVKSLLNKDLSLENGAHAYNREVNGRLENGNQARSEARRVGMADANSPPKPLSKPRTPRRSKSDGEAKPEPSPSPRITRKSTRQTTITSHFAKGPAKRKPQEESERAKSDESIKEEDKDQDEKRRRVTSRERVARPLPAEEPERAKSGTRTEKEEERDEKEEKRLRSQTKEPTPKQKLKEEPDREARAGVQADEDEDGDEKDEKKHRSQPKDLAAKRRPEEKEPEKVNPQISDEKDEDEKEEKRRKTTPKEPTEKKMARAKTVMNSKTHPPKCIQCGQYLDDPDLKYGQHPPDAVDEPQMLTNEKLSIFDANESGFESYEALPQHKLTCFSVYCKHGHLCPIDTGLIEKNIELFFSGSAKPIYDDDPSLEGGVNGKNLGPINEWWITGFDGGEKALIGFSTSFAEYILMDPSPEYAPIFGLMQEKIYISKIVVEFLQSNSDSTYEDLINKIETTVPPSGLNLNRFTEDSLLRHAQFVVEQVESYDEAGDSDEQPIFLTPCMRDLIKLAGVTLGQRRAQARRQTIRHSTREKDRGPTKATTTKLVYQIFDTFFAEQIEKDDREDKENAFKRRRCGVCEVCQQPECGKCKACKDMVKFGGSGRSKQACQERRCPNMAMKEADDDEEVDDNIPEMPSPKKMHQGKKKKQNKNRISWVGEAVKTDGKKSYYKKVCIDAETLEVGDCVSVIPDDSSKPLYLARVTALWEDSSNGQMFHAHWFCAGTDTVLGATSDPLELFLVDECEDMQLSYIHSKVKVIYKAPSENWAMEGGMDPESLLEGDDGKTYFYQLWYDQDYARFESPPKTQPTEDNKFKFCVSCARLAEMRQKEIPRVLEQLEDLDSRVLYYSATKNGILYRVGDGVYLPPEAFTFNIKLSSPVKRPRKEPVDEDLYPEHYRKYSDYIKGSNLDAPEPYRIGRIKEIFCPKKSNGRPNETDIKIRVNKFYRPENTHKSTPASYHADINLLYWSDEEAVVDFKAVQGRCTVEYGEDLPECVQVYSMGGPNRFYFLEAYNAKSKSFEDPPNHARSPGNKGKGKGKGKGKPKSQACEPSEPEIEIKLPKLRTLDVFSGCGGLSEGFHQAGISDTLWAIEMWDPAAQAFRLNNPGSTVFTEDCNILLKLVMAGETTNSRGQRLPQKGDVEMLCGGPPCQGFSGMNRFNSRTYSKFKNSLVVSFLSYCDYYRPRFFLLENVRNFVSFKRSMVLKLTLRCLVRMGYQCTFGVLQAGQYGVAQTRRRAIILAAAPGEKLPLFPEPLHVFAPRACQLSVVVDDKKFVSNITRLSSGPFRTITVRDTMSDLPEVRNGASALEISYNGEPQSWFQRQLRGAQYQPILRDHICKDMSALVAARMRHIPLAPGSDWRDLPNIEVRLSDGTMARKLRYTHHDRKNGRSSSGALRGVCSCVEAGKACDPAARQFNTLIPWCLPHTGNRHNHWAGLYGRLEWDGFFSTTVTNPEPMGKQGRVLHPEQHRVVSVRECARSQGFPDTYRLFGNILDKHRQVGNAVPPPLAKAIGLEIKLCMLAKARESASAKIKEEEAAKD

Bcl-2-like protein 1 = Bcl-2-like protein 1 (Homo sapiens, UniProt Q07817); assay: BCL-XL inhibitors, dose response, selectivity assay for MCL1 inhibitor project, biochemical, fluorescence polarization, 1536-well (AID 2218)
Chain of Bcl-2-like protein 1 (Q07817 whole entry): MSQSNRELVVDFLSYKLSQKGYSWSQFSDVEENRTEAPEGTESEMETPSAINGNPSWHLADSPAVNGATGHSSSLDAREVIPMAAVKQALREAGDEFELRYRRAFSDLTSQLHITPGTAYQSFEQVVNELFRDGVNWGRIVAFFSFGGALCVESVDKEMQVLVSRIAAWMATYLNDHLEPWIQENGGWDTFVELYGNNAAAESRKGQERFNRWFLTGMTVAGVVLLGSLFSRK

[3] = molecular target: T1, Small ubiquitin-related modifier 1 (Homo sapiens, UniProt P63165); assay: inhibitors of SUMO1 peptide binding, dose response, biochemical, fluorescence polarization, uHTS hits (AID 624382); assay type: functional; conditions: read-out: IC50_Mean
T1 sequence (P63165 whole entry): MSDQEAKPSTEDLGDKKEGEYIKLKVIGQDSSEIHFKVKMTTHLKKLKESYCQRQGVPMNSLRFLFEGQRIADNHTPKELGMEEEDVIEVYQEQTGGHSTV

[4] = molecular target: T1, Small ubiquitin-related modifier 1; assay: inhibitors of SUMO1 partner interactions, dose response, biochemical, FRET (AID 624383); assay type: functional; conditions: read-out: IC50_Mean
[5] = THP-1 cell cytotoxicity, dose response, cytotoxicity control for non-replicating M. tuberculosis project (AID 489025); assay type: functional
[6] = molecular target: T2, Eukaryotic translation initiation factor 2-alpha kinase 3 (Homo sapiens, UniProt Q9NZJ5); assay: Counterscreen assay for PERK inhibitors: Dose response cell-based high throughput screening assay to measure inhibition of PERK at 6 hours. [Related pubchem assays: 1522, 1416 ]; assay type: functional
T2 sequence (Q9NZJ5 whole entry): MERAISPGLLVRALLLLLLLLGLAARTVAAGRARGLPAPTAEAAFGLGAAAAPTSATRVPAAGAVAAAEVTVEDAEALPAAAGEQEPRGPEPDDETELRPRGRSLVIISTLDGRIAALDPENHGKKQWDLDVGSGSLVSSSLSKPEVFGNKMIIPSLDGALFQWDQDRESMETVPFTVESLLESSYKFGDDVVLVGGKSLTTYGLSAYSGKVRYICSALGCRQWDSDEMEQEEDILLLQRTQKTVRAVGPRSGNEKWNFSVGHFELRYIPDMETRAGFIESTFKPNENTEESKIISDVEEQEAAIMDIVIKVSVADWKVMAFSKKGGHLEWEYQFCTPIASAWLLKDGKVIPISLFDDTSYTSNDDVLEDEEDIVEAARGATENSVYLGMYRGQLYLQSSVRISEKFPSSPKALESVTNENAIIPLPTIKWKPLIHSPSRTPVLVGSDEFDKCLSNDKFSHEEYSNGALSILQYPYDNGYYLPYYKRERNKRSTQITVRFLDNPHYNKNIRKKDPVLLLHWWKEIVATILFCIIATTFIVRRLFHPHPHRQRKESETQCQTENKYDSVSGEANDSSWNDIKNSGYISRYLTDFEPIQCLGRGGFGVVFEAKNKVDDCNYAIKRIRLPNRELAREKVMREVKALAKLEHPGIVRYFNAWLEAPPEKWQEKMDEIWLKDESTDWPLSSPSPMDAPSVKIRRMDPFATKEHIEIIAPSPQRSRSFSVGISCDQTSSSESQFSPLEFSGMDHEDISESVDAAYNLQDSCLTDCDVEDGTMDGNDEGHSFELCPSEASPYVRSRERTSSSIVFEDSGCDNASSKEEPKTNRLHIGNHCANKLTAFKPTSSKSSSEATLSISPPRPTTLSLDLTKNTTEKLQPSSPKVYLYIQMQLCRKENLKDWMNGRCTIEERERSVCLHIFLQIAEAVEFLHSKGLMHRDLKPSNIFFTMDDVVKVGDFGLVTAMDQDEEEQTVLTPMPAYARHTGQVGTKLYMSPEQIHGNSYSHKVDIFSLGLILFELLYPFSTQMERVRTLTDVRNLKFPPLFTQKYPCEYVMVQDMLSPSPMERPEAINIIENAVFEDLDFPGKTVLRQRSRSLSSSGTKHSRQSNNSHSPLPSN

[7] = molecular target: T2, Eukaryotic translation initiation factor 2-alpha kinase 3; assay: Dose response cell-based high-throughput screening assay to measure PERK inhibition. [Related pubchem assays: 1416 ]; assay type: functional
[8] = M. tuberculosis growth inhibition, HTS (AID 449762); assay type: functional
[9] = molecular target: Sphingosine 1-phosphate receptor 2 (Homo sapiens, UniProt O95136); assay: Dose Response Cell Based Assay for Antagonists of the S1P2 Receptor. [Related pubchem assays: 856, 736 ]; assay type: functional
Chain of Sphingosine 1-phosphate receptor 2 (O95136 whole entry): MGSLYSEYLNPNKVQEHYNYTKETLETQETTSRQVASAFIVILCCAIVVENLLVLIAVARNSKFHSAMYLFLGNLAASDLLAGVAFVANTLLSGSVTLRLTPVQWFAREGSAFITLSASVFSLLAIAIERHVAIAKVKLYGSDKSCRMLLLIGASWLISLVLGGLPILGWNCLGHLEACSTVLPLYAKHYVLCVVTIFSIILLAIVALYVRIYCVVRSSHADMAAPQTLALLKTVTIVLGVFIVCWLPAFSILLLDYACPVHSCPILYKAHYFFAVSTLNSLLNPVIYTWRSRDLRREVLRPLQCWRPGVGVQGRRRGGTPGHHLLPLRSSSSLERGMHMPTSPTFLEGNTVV

[10] = molecular target: Luciferin 4-monooxygenase (Photinus pyralis, UniProt P08659); assay: Counter Screen for Luciferase-based Assay Positives. [Related pubchem assays: 620, 618, 411 ]
Chain of Luciferin 4-monooxygenase (P08659 whole entry): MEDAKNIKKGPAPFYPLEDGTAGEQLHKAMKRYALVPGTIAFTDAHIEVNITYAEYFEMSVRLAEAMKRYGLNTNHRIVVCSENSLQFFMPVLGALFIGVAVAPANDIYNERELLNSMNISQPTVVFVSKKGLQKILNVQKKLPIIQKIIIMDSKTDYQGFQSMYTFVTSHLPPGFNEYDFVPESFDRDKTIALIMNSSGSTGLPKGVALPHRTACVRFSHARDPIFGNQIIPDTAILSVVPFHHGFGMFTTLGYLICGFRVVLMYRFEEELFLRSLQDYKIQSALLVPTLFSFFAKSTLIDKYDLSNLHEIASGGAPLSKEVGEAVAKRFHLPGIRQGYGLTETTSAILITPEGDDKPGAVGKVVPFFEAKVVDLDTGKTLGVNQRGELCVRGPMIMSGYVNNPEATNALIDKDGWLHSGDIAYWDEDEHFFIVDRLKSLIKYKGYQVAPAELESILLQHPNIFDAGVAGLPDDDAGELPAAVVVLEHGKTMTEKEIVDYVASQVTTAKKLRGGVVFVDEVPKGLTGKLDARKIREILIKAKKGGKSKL

[11] = molecular target: T3, Sphingosine 1-phosphate receptor 4 (Homo sapiens, UniProt O95977); assay: Late stage fluorescence dose response cell-based screening assay for antagonists of the Sphingosine 1-Phosphate Receptor 4 (S1P4). [Related pubchem assays: 1524 (Confirmation screen (S1P4 antagonists).), 1510 (Primary screen (S1P4 antagonists).), 1853 (Summary AID (S1P4 antagonists).), 1692 (Dose response screen (S1P4 antagonists).)]; assay type: functional
T3 sequence (O95977 whole entry): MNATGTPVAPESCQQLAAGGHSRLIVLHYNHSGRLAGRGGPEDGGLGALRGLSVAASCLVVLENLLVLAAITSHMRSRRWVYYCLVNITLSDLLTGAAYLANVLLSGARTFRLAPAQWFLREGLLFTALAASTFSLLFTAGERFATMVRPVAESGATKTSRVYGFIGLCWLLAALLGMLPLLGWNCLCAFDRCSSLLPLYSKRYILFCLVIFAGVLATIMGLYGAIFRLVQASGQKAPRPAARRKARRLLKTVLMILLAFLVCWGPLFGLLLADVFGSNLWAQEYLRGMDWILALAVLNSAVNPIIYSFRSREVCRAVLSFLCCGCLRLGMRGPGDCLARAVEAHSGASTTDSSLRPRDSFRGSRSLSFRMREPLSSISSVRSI

[12] = molecular target: T4, Replicative DNA helicase DnaB (Mycobacterium tuberculosis, UniProt P9WMR3); assay: DnaB intein splicing inhibitors, dose response, biochemical, cell-free fluorescence (AID 449749); assay type: functional
T4 sequence (P9WMR3 whole entry): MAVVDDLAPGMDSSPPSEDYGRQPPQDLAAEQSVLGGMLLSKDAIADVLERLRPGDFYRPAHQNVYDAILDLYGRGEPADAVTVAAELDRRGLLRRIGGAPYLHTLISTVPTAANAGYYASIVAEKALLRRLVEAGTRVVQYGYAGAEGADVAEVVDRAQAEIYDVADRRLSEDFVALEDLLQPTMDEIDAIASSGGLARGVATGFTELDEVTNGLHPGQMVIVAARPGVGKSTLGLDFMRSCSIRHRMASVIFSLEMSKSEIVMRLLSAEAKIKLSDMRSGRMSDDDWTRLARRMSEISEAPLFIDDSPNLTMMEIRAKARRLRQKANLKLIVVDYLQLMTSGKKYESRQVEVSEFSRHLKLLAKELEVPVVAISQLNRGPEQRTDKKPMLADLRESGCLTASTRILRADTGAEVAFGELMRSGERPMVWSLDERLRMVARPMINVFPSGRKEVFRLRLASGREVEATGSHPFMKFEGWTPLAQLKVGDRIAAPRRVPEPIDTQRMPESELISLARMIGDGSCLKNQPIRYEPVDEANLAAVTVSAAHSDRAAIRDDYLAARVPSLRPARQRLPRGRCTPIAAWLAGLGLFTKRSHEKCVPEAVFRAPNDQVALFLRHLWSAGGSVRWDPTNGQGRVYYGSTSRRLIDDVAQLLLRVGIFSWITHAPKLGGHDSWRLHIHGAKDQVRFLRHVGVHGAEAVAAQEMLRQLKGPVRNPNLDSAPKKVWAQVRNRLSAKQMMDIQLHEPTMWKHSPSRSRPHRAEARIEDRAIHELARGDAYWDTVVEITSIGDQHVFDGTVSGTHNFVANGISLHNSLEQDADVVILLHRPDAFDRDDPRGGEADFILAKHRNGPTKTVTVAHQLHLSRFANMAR

Protein RecA = molecular target: T5, Protein RecA (Mycobacterium tuberculosis, UniProt P9WHJ3); assay: Fluorescence Cell-Free Homogeneous Dose Retest to Identify Inhibitors of RecA-Intein Splicing Activity. [Related pubchem assays (depositor defined):AID2097, AID2223, AID489010, AID492950]; assay type: functional
T5 sequence (P9WHJ3 whole entry): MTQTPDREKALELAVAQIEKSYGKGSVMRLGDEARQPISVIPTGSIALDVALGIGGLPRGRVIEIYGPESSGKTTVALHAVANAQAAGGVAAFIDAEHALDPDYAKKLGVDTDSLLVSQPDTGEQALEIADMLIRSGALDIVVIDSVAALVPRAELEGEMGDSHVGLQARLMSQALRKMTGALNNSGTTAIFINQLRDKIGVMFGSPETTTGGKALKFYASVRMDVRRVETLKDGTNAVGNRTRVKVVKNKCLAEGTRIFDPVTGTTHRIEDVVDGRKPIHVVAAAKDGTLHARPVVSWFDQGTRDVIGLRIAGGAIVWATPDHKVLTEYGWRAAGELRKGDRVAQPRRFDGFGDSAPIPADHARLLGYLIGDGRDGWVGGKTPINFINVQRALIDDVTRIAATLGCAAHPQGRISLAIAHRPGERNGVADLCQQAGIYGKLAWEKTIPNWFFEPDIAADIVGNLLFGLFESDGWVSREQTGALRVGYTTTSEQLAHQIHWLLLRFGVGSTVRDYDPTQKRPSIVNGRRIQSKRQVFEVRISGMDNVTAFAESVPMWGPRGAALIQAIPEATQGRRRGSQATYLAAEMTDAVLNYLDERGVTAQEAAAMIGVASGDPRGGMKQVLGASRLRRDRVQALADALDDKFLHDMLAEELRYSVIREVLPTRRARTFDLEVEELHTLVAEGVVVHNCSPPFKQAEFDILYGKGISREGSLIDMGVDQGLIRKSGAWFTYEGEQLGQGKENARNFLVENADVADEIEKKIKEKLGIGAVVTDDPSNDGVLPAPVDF

[13] = molecular target: Sphingosine 1-phosphate receptor 1 (Homo sapiens, UniProt P21453); assay type: functional;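 also: Tango beta-arrestin reporter U2OS cells stimulated with S1P near its EC80; inhibitor potency meaning antagonism of receptor activation by the natural agonist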
Chain of Sphingosine 1-phosphate receptor 1 (P21453 whole entry): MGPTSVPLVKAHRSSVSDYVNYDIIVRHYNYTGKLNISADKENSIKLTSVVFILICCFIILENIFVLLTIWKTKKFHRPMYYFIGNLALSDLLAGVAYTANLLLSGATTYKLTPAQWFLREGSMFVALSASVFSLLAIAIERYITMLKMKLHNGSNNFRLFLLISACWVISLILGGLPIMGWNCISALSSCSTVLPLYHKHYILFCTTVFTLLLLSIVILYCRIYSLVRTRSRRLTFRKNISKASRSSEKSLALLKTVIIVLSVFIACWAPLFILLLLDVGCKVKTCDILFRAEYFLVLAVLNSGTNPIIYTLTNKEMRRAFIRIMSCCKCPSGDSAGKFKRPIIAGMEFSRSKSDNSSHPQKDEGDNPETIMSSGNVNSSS

HT-1080 = assay: cytotoxicity in HT1080 fibrosarcoma cells, cell-based, fluorescence readout (AID 620); assay type: functional; conditions: Homo sapiens
[14] = molecular target: T3, Sphingosine 1-phosphate receptor 4; assay: Fluorescence dose response cell-based high throughput screening assay for antagonists of the Sphingosine 1-Phosphate Receptor 4 (S1P4). [Related pubchem assays: 1524 (Confirmation in triplicates.), 1510 (Primary screen.)]; assay type: functional
[15] = molecular target: Diphosphomevalonate decarboxylase (Streptococcus pneumoniae serotype 2 (strain D39 / NCTC 7466), UniProt Q9FD53); assay: S. pneumoniae DPM-DC inhibition retest, confirmation, biochemical, cuvette format, coupled NADH fluorescence (AID 1028); assay type: functional
Chain of Diphosphomevalonate decarboxylase (Q9FD53 whole entry): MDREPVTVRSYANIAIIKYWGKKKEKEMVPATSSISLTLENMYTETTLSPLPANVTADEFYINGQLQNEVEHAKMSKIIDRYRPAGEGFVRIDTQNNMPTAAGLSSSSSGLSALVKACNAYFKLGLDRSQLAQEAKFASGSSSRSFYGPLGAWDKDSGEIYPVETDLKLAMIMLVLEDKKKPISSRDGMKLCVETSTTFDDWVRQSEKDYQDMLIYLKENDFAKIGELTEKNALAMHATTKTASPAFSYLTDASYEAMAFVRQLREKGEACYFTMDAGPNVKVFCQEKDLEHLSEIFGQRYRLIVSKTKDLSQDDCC

Question: Which IC50 (Danio rerio) does the source give for O=C1Nc2ccccc2/C1=C1/Nc2ccccc2C1=O [INDIRUBIN] here?
Answer: < 0.1 µM (not active)

Question: For COc1cc(CNC(C)(C)CO)cc(Br)c1OCc1ccc(Cl)cc1, which IC50 (Vero) is on record?
Answer: 19.1 µM (active)

Question: What does the source list for O=C1COc2ccc(C(=O)COC(=O)/C=C/c3ccc(Br)o3)cc2N1?
Answer: IC50 [1]: > 4.03 µM (active); IC50 (Albumin): > 94.1 µM (inactive); IC50 (Genome polyprotein): > 49.8 µM (not active); IC50 [2]: 12.2 µM (active); IC50 (Bcl-2-like protein 1): > 109 µM (not active); IC50 [3]: > 66.6 µM (inactive); IC50 [4]: 4.57 µM (active)

Question: Which CC50 [5] does the source give for O=Cc1ccc(-c2ccc(Cl)cc2Cl)[nH]1 here?
Answer: > 40 µM (active)

Question: What about the EC50 [6] of the same compound?
Answer: > 55.7 µM (not active)

Question: What about the EC50 [7] of the same compound?
Answer: > 55.7 µM (not active)

Question: And the IC50 [8]?
Answer: > 100 µM (active)

Question: What does the source list for COc1ccc(NC(=O)/C(Cl)=C(/Cl)S(=O)(=O)Cc2ccc(C)cc2)cn1?
Answer: IC50 [9]: 1.48 µM (active); EC50 [10]: < 0.2 µM (active); IC50 [11]: 15.4 µM (not active); AC50 [12]: 4.27 µM (active); EC50 (Protein RecA): 2.71 µM (active); IC50 [13]: 7.07 µM (active); EC50 (HT-1080): 18.8 µM (active); IC50 [14]: 0.564 µM (active)

Question: Which IC50 [15] does the source give for O=C(c1ccc(-n2sc3ccccc3c2=O)cc1)N1CCCCC1 here?
Answer: 14.3 µM (active)
